Assay results from patent publication US20180064702A1 (Teva Pharmaceutical Industries, Ltd., priority 2013, published 2018).

Experiments:
[1] = tested on: patients afflicted with a progressive form of multiple sclerosis (PPMS, SPMS, PRMS); assay: Phase III clinical trial of oral laquinimod in progressive forms of multiple sclerosis (Example 1); type: in vivo, human; details: daily oral 0.6 mg, 0.9 mg, 1.2 mg and 1.8 mg
Description: 3-5 Years (2-4 years recruitment duration). Progressive Forms of Multiple Sclerosis, including Primary Progressive Multiple sclerosis (PPMS) and Secondary Progressive Multiple Sclerosis (SPMS). […] Matching placebo for laquinimod arm: matching placebo for laquinimod administered once daily. Approximately 140-240 sites and approximately 1300-2300 subjects. Inclusion Criteria • 1. Subjects must be 25-65 years old. • 2. Subjects must have a confirmed and documented diagnosis of Primary Progressive (according to McDonald), Progressive-Relapsing or Secondary Progressive (clinical definition, without relapses in the previous year) Multiple Sclerosis disease course. • 3. Subjects must be ambulatory with converted Kurtzke EDSS score of 3.0-6.5. • 4. Subjects must have a Pyramidal Functional Systems (FS) score of ≧2. • 5. Subjects must have a threshold Timed 25-Foot Walk ([…]) score. Exclusion Criteria • 1. Subjects with RRMS. • 2. Subjects with clinically significant or unstable medical or surgical condition that would preclude safe and complete study participation, as determined by medical history, physical examination, ECG, laboratory tests or chest X-ray. • 3. […] Confirmed disability progression at 3 and 6 months. This study assesses the efficacy of various daily doses of laquinimod as compared to placebo in multiple sclerosis subjects.

[2] = tested on: patients afflicted with PPMS; assay: Phase II clinical trial of laquinimod in Primary Progressive Multiple Sclerosis subjects (Example 2); type: in vivo, human; details: daily oral 0.6 mg, 1.0 mg and 1.5 mg
Protocol: Study Duration • Screening phase: Up to 1 month • Treatment Phase: At least 15 months
Subjects with Primary Progressive Multiple Sclerosis (approximately 500 subjects in approximately 120 centers, with about 125 subjects per study arm).
Investigational Product Route and Dosage Form • 1. […] Placebo arm: Three capsules containing placebo (0.5/0.6 mg matching) to be administered orally once daily.
Eligible subjects are randomized in a 1:1:1:1 ratio into one of the following treatment arms: • 1. […] Matching placebo
Subjects that stopped treatment with the study drug before the completion of Month 12 visit are considered Early Treatment Discontinuation (ETD) subjects. ETD subjects continue follow-up according to scheduled visits (until Month 12).
Subjects have the following study visits: Screening visit (−1 Month), Baseline visit (Month 0), and Months 1, 2, 3, 6, 9, 12, and every three months until study termination.
The following assessments are performed at the specified time points: • 1. Vital signs are measured at each study visit. • 2. A physical examination is performed at months −1, 0, 1, 3, 6 and every 6 months thereafter, ETD (if applicable), and until study completion. • 3. The following safety clinical laboratory tests are performed: • a. Complete blood count (CBC) with differential at all scheduled visits. • b. Serum chemistry (including electrolytes, liver enzymes, urea, creatinine, glucose, total protein, albumin, direct and total bilirubin, Creatinephosphokinase (CPK), serum conventional C-reactive protein (CRP), fibrinogen and pancreatic amylase)—at all scheduled visits. Calculated Glomerular Filtration Rate (GFR) at screening and prior to each MRI scan. • c. Lipid profile (total cholesterol, HDL, LDL, triglycerides)—at baseline (month 0) and every 12 months until completion/ETD. • d. Serum TSH, T3 and Free T4 at baseline (month 0), month 6 and every 12 months until completion/ETD. • e. Urinalysis at the screening visit. • f. Serum human choriogonadotropin beta (β-hCG) in women of child-bearing potential is performed at each scheduled study visit. • g. Urine β-hCG test is performed in women of child-bearing potential at baseline (month 0) and at each scheduled study visit thereafter. • h. Starting after visit Month 3 a β-hCG test is performed in women of child-bearing potential every 28 (±2) days. In case of suspected pregnancy the study drug is discontinued. • 4. Additional blood for analysis of serology for Hepatitis B and C viruses at baseline visit • 5. […] ECG is performed at months −1 (screening), 0 (baseline, three recordings 10 min apart, before first dose), 1, 2, 3, 6, 12 and every 12 months until completion/ETD. • 8. Chest X-ray is performed at month −1, (if not performed within 6 months prior to the screening visit). • 9. Adverse Events (AEs) are monitored throughout the study. • 10. Concomitant Medications are monitored throughout the study. • 11. All subjects—conventional MRI scans with gadolinium at Months 0 (14 to 7 days before Baseline), and 12. In case of ETD, or completion, an additional MRI is performed, provided no study MRI was done within the previous 3 months. • 12. In case of steroid treatment, study MRI is performed before such treatment or delayed to allow a minimum of 14 days but not more than 28 days from the completion of the steroid course. • 13. All subjects—MRI including 3D T1-w acquisitions of the brain and cervical cord, to measure whole brain volume, cord atrophy, thalamic atrophy, cortical atrophy and white matter (WM) atrophy at Months 0 (Baseline), 12 or ETD (if applicable). • 14. Neurological evaluations, including Expanded Disability Status Scale (EDSS), Timed 25-Foot Walk (T25FW)/9-Hole Peg test (9HPG), Ambulation Index (AI), Functional systems (FS), are performed at months −1, 0, and every 3 months thereafter, ETD visit (if applicable) and until completion visit. • 15. […]

[3] = tested on: genes related to antigen presentation and corresponding inflammatory pathways; details: mainly via the NFkB pathway; cited from earlier work
[4] = in vivo; cited from earlier work
[5] = tested on: patients having Relapsing-Remitting Multiple Sclerosis (RRMS); details: cited from earlier work

CCN(C(=O)c1c(O)c2c(Cl)cccc2n(C)c1=O)c1ccccc1 [laquinimod]
accumulation of physical disability ([1]; PPMS, vs placebo control group): reduces the accumulation of physical disability
accumulation of physical disability ([1]; PPMS, vs the patient at baseline): reduces the accumulation of physical disability
accumulation of physical disability ([1]; PRMS, vs placebo control group): reduces the accumulation of physical disability
accumulation of physical disability ([1]; PRMS, vs the patient at baseline): reduces the accumulation of physical disability
accumulation of physical disability ([1]; SPMS, vs placebo control group): reduces the accumulation of physical disability
accumulation of physical disability ([1]; SPMS, vs the patient at baseline): reduces the accumulation of physical disability
accumulation of physical disability ([1]; progressive form of multiple sclerosis, vs placebo control group): reduces the accumulation of physical disability
accumulation of physical disability ([1]; progressive form of multiple sclerosis, vs the patient at baseline): reduces the accumulation of physical disability
accumulation of physical disability ([2]; vs placebo control group): reduces the accumulation of physical disability
brain atrophy (percentage change in brain volume from Baseline to month 12) ([2]; vs placebo control group): reduces brain atrophy
cognitive function ([2]; vs placebo control group): improves cognitive function
cumulative number of new T2 lesions ([2]; vs placebo control group): reduces the cumulative number of new T2 lesions
accumulation of physical disability ([2]; vs the patient at baseline): reduces the accumulation of physical disability
brain atrophy (percentage change in brain volume from Baseline to month 12) ([2]; vs the patient at baseline): reduces brain atrophy
cognitive function ([2]; vs the patient at baseline): improves cognitive function
cumulative number of new T2 lesions ([2]; vs the patient at baseline): reduces the cumulative number of new T2 lesions
suppression of genes related to antigen presentation [3]: induced suppression of genes related to antigen presentation and corresponding inflammatory pathways
oral bioavailability [4]: high
EDSS progression of disability ([5]; RRMS patients): consistently reduced EDSS progression of disability
brain atrophy ([5]; RRMS patients): reduced brain atrophy
non-conventional MRI metrics ([5]; RRMS patients): increased non-conventional MRI metrics suggestive of preservation of tissue architecture
safety and tolerability profile ([5]; two phase III trials, relapsing-remitting multiple sclerosis patients): favorable safety and tolerability profile
